This passage reports T/C results from PubChem BioAssay AID248 (DTP/NCI, 2004).

The test system of this experiment is L1210 leukemia ip in BDF1 mice, survival T/C. As to the kind of experiment: NCI In Vivo Anticancer Drug Screen. Data for tumor model L1210 Leukemia (intraperitoneal) in B6D2F1 (BDF1) mice. The following applies: endpoint: mean survival time, higher = longer survival. An outline of the steps:
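In this screen, tumor-bearing mice given compound are compared to those given vehicle, and their survival values are reported as a treated-to-control quotient.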

Where [1] appears, read: dose: 30.0 mg/kg/injection, schedule: Q01DX Z (ip), vehicle: methylcellulose (MC).
The mark [2] stands for this setting: dose: 50.0 mg/kg/injection, schedule: Q01DX009 (ip), vehicle: saline with Tween-80.
The mark [3] stands for this setting: dose: 100.0 mg/kg/injection, schedule: Q01DX009 (ip), vehicle: saline with Tween-80.
[4] abbreviates: dose: 100.0 mg/kg/injection, schedule: Q04DX003 (ip), vehicle: saline with Tween-80.
Setting [5] is: dose: 200.0 mg/kg/injection, schedule: Q04DX003 (ip), vehicle: saline with Tween-80.
The mark [6] stands for this setting: dose: 400.0 mg/kg/injection, schedule: Q04DX003 (ip), vehicle: saline with Tween-80.
Where [7] appears, read: dose: 100.0 mg/kg/injection, schedule: Q01DX009 (ip), vehicle: saline.
The mark [8] stands for this setting: dose: 100.0 mg/kg/injection, schedule: Q04DX003 (ip), vehicle: saline.
Where [9] appears, read: dose: 200.0 mg/kg/injection, schedule: Q04DX003 (ip), vehicle: saline.
[10] abbreviates: dose: 100.0 mg/kg/injection, schedule: Q01DX001 (ip), vehicle: saline.
The mark [11] stands for this setting: dose: 200.0 mg/kg/injection, schedule: Q01DX001 (ip), vehicle: saline.
Where [12] appears, read: dose: 400.0 mg/kg/injection, schedule: Q04DX003 (ip), vehicle: saline.
Where [13] appears, read: dose: 100.0 mg/kg/injection, schedule: Q04DX003 (ip), vehicle: carboxymethylcellulose (CMC).
[14] abbreviates: dose: 200.0 mg/kg/injection, schedule: Q04DX003 (ip), vehicle: carboxymethylcellulose (CMC).
The mark [15] stands for this setting: dose: 400.0 mg/kg/injection, schedule: Q04DX003 (ip), vehicle: carboxymethylcellulose (CMC).

Several values for one entry are separate records, joined by “and”; a condition that tells them apart may be missing. Equal entries are not always repeated. Toxic doses and inconclusive results are not listed.

For `O=C(Nc1ccccc1C1=NCCN1)c1ccc(C(=O)Nc2ccccc2C2=NCCN2)cc1`, the T/C reads like this: (dose: 15.0 mg/kg/injection, schedule: Q01DX Z (ip), vehicle: methylcellulose (MC)) 88 % of control; under setting [1], 95 % of control; (dose: 62.0 mg/kg/injection, schedule: Q01DX Z (ip), vehicle: carboxymethylcellulose (CMC)) 92 % of control; (dose: 125.0 mg/kg/injection, schedule: Q01DX Z (ip), vehicle: carboxymethylcellulose (CMC)) 94 % of control; (dose: 250.0 mg/kg/injection, schedule: Q01DX Z (ip), vehicle: carboxymethylcellulose (CMC)) 88 % of control.
Consider `ClCc1ccc(CCl)c(Cl)c1Cl`, for which the T/C runs as follows: (dose: 25.0 mg/kg/injection, schedule: Q01DX009 (ip), vehicle: saline with Tween-80) 105 % of control; under setting [2], 97 % of control; under setting [3], 93 % of control.
On to `CC(=O)N(C)CC(O)C(O)C(O)C(O)CO` (stereo not drawn), for which the T/C was 100 % of control under setting [4], 94 % of control under setting [5] and 96 % of control under setting [6].
Regarding `CC(=O)O[C@H]1CCCC[C@@H]1NC(=O)N(CCCl)N=O`, the T/C is 118 % of control (dose: 4.4 mg/kg/injection, schedule: Q01DX001 (ip), vehicle: carboxymethylcellulose (CMC)); 175 % of control (dose: 6.7 mg/kg/injection, schedule: Q01DX001 (ip), vehicle: carboxymethylcellulose (CMC)); 194 % of control (dose: 10.0 mg/kg/injection, schedule: Q01DX001 (ip), vehicle: carboxymethylcellulose (CMC)); 313 % of control and 338 % of control (dose: 15.0 mg/kg/injection, schedule: Q01DX001 (ip), vehicle: carboxymethylcellulose (CMC)); 446 % of control (dose: 27.0 mg/kg/injection, schedule: Q01DX001 (ip), vehicle: carboxymethylcellulose (CMC)); 404 % of control (dose: 40.0 mg/kg/injection, schedule: Q01DX001 (ip), vehicle: carboxymethylcellulose (CMC)). For the same compound, the T/C (dose: 60.0 mg/kg/injection, schedule: Q01DX001 (ip), vehicle: carboxymethylcellulose (CMC)) was 196 % of control.
`CCCN(CCC)CC(C)=O`: the T/C is 98 % of control under setting [7]; 107 % of control under setting [8]; 101 % of control (dose: 200.0 mg/kg/injection, schedule: Q01DX009 (ip), vehicle: saline); 109 % of control under setting [9].
Take `Nc1ccccc1Sc1c(N)cc2c3c(cccc13)C(=O)NC2=O`: the T/C by setting is: (dose: 100.0 mg/kg/injection, schedule: Q01DX009 (ip), vehicle: Klucel (hydroxypropylcellulose) (HPC)) 90 % of control; (dose: 200.0 mg/kg/injection, schedule: Q01DX009 (ip), vehicle: Klucel (hydroxypropylcellulose) (HPC)) 90 % of control; (dose: 400.0 mg/kg/injection, schedule: Q01DX009 (ip), vehicle: Klucel (hydroxypropylcellulose) (HPC)) 94 % of control.
Turning to `Clc1ccc2c(Cl)ncnc2c1`, the T/C (dose: 13.0 mg/kg/injection, schedule: Q01DX Z (ip), vehicle: methylcellulose (MC)) is 100 % of control; the T/C (dose: 20.0 mg/kg/injection, schedule: Q01DX Z (ip), vehicle: methylcellulose (MC)) was 100 % of control; the T/C under setting [1] is 104 % of control; the T/C (dose: 45.0 mg/kg/injection, schedule: Q01DX Z (ip), vehicle: methylcellulose (MC)) was 105 % of control; the T/C (dose: 50.0 mg/kg/injection, schedule: Q01DX009 (ip), vehicle: saline) is 96 % of control; the T/C (dose: 50.0 mg/kg/injection, schedule: Q04DX003 (ip), vehicle: saline) is 97 % of control. Further, the T/C was 99 % of control under setting [10]; 100 % of control under setting [7]; 97 % of control under setting [8]; 91 % of control under setting [11]; 94 % of control under setting [9].
Take `O=C(O)COc1cc(Cl)c(Cl)cc1Cl`: the T/C is 102 % of control (dose: 50.0 mg/kg/injection, schedule: Q01DX001 (ip), vehicle: carboxymethylcellulose (CMC)); 106 % of control (dose: 100.0 mg/kg/injection, schedule: Q01DX001 (ip), vehicle: carboxymethylcellulose (CMC)); 100 % of control under setting [4]; 112 % of control (dose: 200.0 mg/kg/injection, schedule: Q01DX001 (ip), vehicle: carboxymethylcellulose (CMC)); 103 % of control under setting [5]; 108 % of control (dose: 400.0 mg/kg/injection, schedule: Q01DX001 (ip), vehicle: carboxymethylcellulose (CMC)). Further, the T/C under setting [6] is 100 % of control.
Regarding `Cc1nnnn1C`, the T/C is, setting by setting: under setting [10], 95 % of control; under setting [8], 105 % of control; under setting [11], 108 % of control; under setting [9], 107 % of control; (dose: 400.0 mg/kg/injection, schedule: Q01DX001 (ip), vehicle: saline) 97 % of control; under setting [12], 88 % of control.
Turning to `O=P(Cc1ccccc1)(N1CCOCC1)N1CCOCC1`, the T/C by setting is: under setting [8], 100 % of control; under setting [9], 93 % of control; under setting [12], 104 % of control.
Take `C[Si](C)(O[Si](C)(C)C1C=CC=C1)C1C=CC=C1`: the T/C runs as follows: (dose: 12.5 mg/kg/injection, schedule: Q01DX001 (ip), vehicle: Klucel (hydroxypropylcellulose) (HPC)) 91 % of control; (dose: 25.0 mg/kg/injection, schedule: Q01DX001 (ip), vehicle: Klucel (hydroxypropylcellulose) (HPC)) 91 % of control; (dose: 50.0 mg/kg/injection, schedule: Q01DX001 (ip), vehicle: Klucel (hydroxypropylcellulose) (HPC)) 88 % of control.
As to `CCCS(=O)(=O)N1CCCCCC1`, the T/C by setting is: (dose: 100.0 mg/kg/injection, schedule: Q04DX002 (ip), vehicle: saline with Tween-80) 92 % of control; (dose: 200.0 mg/kg/injection, schedule: Q04DX002 (ip), vehicle: saline with Tween-80) 92 % of control; (dose: 400.0 mg/kg/injection, schedule: Q04DX002 (ip), vehicle: saline with Tween-80) 92 % of control.
Turning to `Cc1c(F)cccc1C(=O)O`, the T/C is 101 % of control and 102 % of control (dose: 100.0 mg/kg/injection, schedule: Q01DX009 (ip), vehicle: carboxymethylcellulose (CMC)); 100 % of control (dose: 100.0 mg/kg/injection, schedule: Q04DX002 (ip), vehicle: carboxymethylcellulose (CMC)); 103 % of control under setting [13]; 102 % of control and 87 % of control (dose: 200.0 mg/kg/injection, schedule: Q01DX009 (ip), vehicle: carboxymethylcellulose (CMC)); 93 % of control and 105 % of control (dose: 200.0 mg/kg/injection, schedule: Q04DX002 (ip), vehicle: carboxymethylcellulose (CMC)); 103 % of control under setting [14]. Further, the T/C runs as follows: (dose: 400.0 mg/kg/injection, schedule: Q01DX009 (ip), vehicle: carboxymethylcellulose (CMC)) 97 % of control and 90 % of control; (dose: 400.0 mg/kg/injection, schedule: Q04DX002 (ip), vehicle: carboxymethylcellulose (CMC)) 93 % of control and 102 % of control; under setting [15], 101 % of control.
Turning to `O=C(Oc1cc(Cl)c(S(=O)(=O)F)cc1Cl)c1ccccc1Cl`, the T/C under setting [13] is 88 % of control, the T/C under setting [14] was 90 % of control and the T/C under setting [15] was 88 % of control.
For `COc1ccccc1NC(=S)N(C)C`, the T/C by setting is: under setting [4], 96 % of control; under setting [5], 93 % of control.
`CCOC(=O)CCCN(c1[nH]c(C)c(C)c1C#N)S(=O)(=O)c1ccc(C)cc1`: the T/C is 93 % of control under setting [2]; 93 % of control (dose: 50.0 mg/kg/injection, schedule: Q04DX003 (ip), vehicle: saline with Tween-80); 96 % of control under setting [3]; 90 % of control under setting [4]; 90 % of control (dose: 200.0 mg/kg/injection, schedule: Q01DX009 (ip), vehicle: saline with Tween-80); 101 % of control under setting [5]. Also, the T/C runs as follows: (dose: 400.0 mg/kg/injection, schedule: Q01DX009 (ip), vehicle: saline with Tween-80) 100 % of control; under setting [6], 95 % of control.
Take `NC(=O)NC(=O)c1nccnc1C(=O)O`: the T/C by setting is: (dose: 100.0 mg/kg/injection, schedule: Q01DX001 (ip), vehicle: water) 88 % of control; (dose: 200.0 mg/kg/injection, schedule: Q01DX001 (ip), vehicle: water) 101 % of control; (dose: 400.0 mg/kg/injection, schedule: Q01DX001 (ip), vehicle: water) 87 % of control.
